Experimental data from paper PMC3266667 (Frontiers in Pharmacology, 2012).
Read-outs that look alike come from different tables or passages of the source.

Biological target: hERG K+ channels (Homo sapiens, UniProt Q12809)
[1] = Patchliner, CHO-hERG cells, physiological temperature

Sequence of hERG K+ channels (Q12809 whole entry): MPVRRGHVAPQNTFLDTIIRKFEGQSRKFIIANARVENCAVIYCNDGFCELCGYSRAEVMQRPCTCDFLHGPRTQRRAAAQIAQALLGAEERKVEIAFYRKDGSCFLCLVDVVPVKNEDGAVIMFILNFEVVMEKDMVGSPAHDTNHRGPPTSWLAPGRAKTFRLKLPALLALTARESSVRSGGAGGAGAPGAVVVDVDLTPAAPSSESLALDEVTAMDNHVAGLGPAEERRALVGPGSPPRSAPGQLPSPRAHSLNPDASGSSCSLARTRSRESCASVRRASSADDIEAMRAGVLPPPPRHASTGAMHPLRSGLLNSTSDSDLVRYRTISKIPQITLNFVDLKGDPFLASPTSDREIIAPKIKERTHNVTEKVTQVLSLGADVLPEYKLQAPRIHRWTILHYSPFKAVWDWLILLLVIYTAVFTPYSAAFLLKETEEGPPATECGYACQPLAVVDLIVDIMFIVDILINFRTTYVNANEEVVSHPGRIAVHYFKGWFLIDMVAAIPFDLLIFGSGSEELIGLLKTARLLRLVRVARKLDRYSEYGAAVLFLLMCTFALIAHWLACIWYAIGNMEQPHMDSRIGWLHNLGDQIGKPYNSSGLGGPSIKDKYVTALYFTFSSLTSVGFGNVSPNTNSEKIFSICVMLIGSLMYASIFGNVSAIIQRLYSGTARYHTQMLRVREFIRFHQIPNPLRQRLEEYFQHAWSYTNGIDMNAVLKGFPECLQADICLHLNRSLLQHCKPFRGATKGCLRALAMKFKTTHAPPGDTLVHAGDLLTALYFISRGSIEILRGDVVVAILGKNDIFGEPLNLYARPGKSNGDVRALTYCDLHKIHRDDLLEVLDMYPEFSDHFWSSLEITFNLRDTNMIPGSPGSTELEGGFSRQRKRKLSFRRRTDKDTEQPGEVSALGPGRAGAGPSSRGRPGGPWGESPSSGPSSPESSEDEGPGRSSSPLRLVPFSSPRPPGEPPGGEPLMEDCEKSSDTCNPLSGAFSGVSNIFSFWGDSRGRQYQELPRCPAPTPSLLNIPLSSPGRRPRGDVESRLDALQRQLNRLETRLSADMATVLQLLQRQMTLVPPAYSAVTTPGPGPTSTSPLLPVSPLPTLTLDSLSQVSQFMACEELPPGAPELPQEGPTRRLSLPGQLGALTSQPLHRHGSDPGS

| SMILES | effect on the hERG current (in words) [1] | effect on the hERG current (in words) | further results |
| --- | --- | --- | --- |
| C[C@H](CS)C(=O)N1CCC[C@H]1C(=O)O [Captopril] | did not affect the hERG current up to the highest concentration tested |  |  |
| Cc1cc2c(s1)Nc1ccccc1N=C2N1CCN(C)CC1 [Olanzapine] |  | intermediate effect on the hERG current |  |
| CC(C)Cc1ccc(C(C)C(=O)O)cc1 (centres unmarked) [Ibuprofen] | did not affect the hERG current up to the highest concentration tested |  |  |
| CC(C)NCC(O)c1ccc(NS(C)(=O)=O)cc1 (racemic) [D,L-Sotalol] |  | intermediate effect on the hERG current |  |
| COc1cc(N)c(Cl)cc1C(=O)NC1CCN(CCCOc2ccc(F)cc2)CC1OC (centres unmarked) [Cisapride] |  |  | effect on the hERG current (in words) (human): IC50 values in the low and mid-nanomolar range |
